The experiment deals with human SGLT2 (Homo sapiens (Human), UniProt P31639). In words: Inhibitory effects on human SGLT2 activities (14C-AMG uptake, sodium-dependent glucose transport assay). Format: cell-based. To be noted: CHO cells stably expressing hSGLT2, 37° C., 2 h, single determinations. From the text: Test 1: Cloning and Cell Line Construction for Human SGLT2
Human SGLT2 (hSGLT2) gene was amplified by PCR from cDNA-Human Adult Normal Tissue Kidney (Invitrogen). The hSGLT2 sequence was cloned into pcDNA3.1(+) for mammalian expression and stably transfected into chinese hamster ovary (CHO) cells. SGLT2-expressing clones were selected based on resistance to G418 antibiotic (Geneticin) and activity in the ^14C-α-methyl-D-glucopyranoside (^14C-AMG) uptake assay.
Test 2: Inhibitory Effects on Human SGLT2 Activities
For sodium-dependent glucose transport assay, cells expressing hSGLT2 were seeded into a 96-well culture plate at a density of 5×10^4 cells/well in RPMI medium 1640 containing 10% fetal bovine serum. The cells were used 1 day after plating. They were incubated in pretreatment buffer (10 mM HEPES, 5 mM Tris, 140 mM choline chloride, 2 mM KCl, 1 mM CaCl2, and 1 mM MgCl2, pH 7.4) at 37° C. for 10 min. They were then incubated in uptake buffer (10 mM HEPES, 5 mM Tris, 140 mM NaCl, 2 mM KCl, 1 mM CaCl2, 1 mM MgCl2, and 1 mM ^14C-nonlabeled AMG pH 7.4) containing ^14C-labeled AMG (8 μM) and the inventive compound or dimethyl sulfoxide (DMSO) vehicle at 37° C. for 2 h. Cells were washed twice with washing buffer (pretreatment buffer containing 10 mM AMG at room temperature) and then the radioactivity was measured using a liquid scintillation counter. IC50 was determined by nonlinear regression analysis using GraphPad PRISM [Katsuno, K. et al. J. Pharmacol. Exp. Ther. 2007, 320, 323-330; Han, S. et al. Diabetes, 2008, 57, 1723-1729].

pIC50: −log10 of the molar value.

Sequence of human SGLT2 (P31639 whole entry): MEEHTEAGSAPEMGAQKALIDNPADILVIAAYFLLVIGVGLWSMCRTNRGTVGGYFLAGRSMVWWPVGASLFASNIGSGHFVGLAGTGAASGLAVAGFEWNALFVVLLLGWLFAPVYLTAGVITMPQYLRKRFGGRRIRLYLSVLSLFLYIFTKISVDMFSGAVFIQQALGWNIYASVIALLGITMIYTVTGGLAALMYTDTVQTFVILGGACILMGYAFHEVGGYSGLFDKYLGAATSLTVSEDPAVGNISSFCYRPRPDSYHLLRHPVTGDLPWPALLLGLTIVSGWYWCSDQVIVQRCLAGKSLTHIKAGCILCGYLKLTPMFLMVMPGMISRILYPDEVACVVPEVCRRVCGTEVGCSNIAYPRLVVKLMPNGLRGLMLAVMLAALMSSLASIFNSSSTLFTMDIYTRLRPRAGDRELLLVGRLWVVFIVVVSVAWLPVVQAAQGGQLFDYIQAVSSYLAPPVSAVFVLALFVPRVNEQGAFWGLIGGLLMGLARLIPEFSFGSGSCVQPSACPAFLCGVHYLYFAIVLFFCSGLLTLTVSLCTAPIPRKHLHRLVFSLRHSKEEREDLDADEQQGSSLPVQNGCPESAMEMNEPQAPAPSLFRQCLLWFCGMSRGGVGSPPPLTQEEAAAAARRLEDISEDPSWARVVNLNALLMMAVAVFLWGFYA

Regarding `OC[C@H]1O[C@@H](c2ccc(Cl)c(Cc3ccc4c(c3)CCS4)c2)[C@H](O)[C@@H](O)[C@@H]1O` [Example E032, (2S,3R,4R,5S,6R)-2-(4-Chloro-3-((2,3-dihydrobenzo[b]thiophen-5-yl)methyl)phenyl)-6-(hydroxymethyl)tetrahydro-2H-pyran-3,4,5-triol], the negative logarithm of the IC50 (pIC50) was 8.67.
For `OC[C@H]1O[C@@H](c2ccc(Cl)c(Cc3ccc4c(cnn4Cc4ccccc4)c3)c2)[C@H](O)[C@@H](O)[C@@H]1O` [Example E033, (2S,3R,4R,5S,6R)-2-(3-((1-Benzyl-1H-indazol-5-yl)methyl)-4-chlorophenyl)-6-(hydroxymethyl)tetrahydro-2H-pyran-3,4,5-triol], the pIC50 is 8.62.
Molecule `Cn1ccc2cc(Cc3cc([C@@H]4O[C@H](CO)[C@@H](O)[C@H](O)[C@H]4O)ccc3Cl)ccc21` [Example E034, (2S,3R,4R,5S,6R)-2-(4-Chloro-3-((1-methyl-1H-indol-5-yl)methyl)phenyl)-6-(hydroxymethyl)tetrahydro-2H-pyran-3,4,5-triol] gave a pIC50 of 8.53. This pIC50 and that of the molecule before are within 0.2 log units of each other.
The same measure for `Cn1ncc2cc(Cc3cc([C@@H]4O[C@H](CO)[C@@H](O)[C@H](O)[C@H]4O)ccc3Cl)ccc21` [Example E035, (2S,3R,4R,5S,6R)-2-(4-Chloro-3-((1-methyl-1H-indazol-5-yl)methyl)phenyl)-6-(hydroxymethyl)tetrahydro-2H-pyran-3,4,5-triol]: 8.76; for `Cn1cc2cc(Cc3cc([C@@H]4O[C@H](CO)[C@@H](O)[C@H](O)[C@H]4O)ccc3Cl)ccc2n1` [Example E036, (2S,3R,4R,5S,6R)-2-(4-Chloro-3-((2-methyl-2H-indazol-5-yl)methyl)phenyl)-6-(hydroxymethyl)tetrahydro-2H-pyran-3,4,5-triol]: 8.64.
Molecule `CCn1ncc2cc(Cc3cc([C@@H]4O[C@H](CO)[C@@H](O)[C@H](O)[C@H]4O)ccc3Cl)ccc21` [Example E037, (2S,3R,4R,5S,6R)-2-(4-Chloro-3-((1-ethyl-1H-indazol-5-yl)methyl)phenyl)-6-(hydroxymethyl)tetrahydro-2H-pyran-3,4,5-triol] gave a pIC50 of 8.80. The pIC50 values of the last two molecules are within 0.2 log units of each other.
Turning to `CCn1cc2cc(Cc3cc([C@@H]4O[C@H](CO)[C@@H](O)[C@H](O)[C@H]4O)ccc3Cl)ccc2n1` [Example E038, (2S,3R,4R,5S,6R)-2-(4-Chloro-3-((2-ethyl-2H-indazol-5-yl)methyl)phenyl)-6-(hydroxymethyl)tetrahydro-2H-pyran-3,4,5-triol], the pIC50 was 8.75.
In the case of `CC(C)n1ncc2cc(Cc3cc([C@@H]4O[C@H](CO)[C@@H](O)[C@H](O)[C@H]4O)ccc3Cl)ccc21` [Example E039, (2S,3R,4R,5S,6R)-2-(4-Chloro-3-((1-isopropyl-1H-indazol-5-yl)methyl)phenyl)-6-(hydroxymethyl)tetrahydro-2H-pyran-3,4,5-triol], the pIC50 is 8.75.
`CC(C)n1cc2cc(Cc3cc([C@@H]4O[C@H](CO)[C@@H](O)[C@H](O)[C@H]4O)ccc3Cl)ccc2n1` [Example E040, (2S,3R,4R,5S,6R)-2-(4-Chloro-3-((2-isopropyl-2H-indazol-5-yl)methyl)phenyl)-6-(hydroxymethyl)tetrahydro-2H-pyran-3,4,5-triol]: the pIC50 is 8.35.
Regarding `COc1cc([C@@H]2O[C@H](CO)[C@@H](O)[C@H](O)[C@H]2O)cc(Cc2ccc3c(c2)OCCO3)c1Cl` [Example E043, (2S,3R,4R,5S,6R)-2-(4-Chloro-3-((2,3-dihydrobenzo[b][1,4]dioxin-6-yl)methyl)-5-methoxyphenyl)-6-(hydroxymethyl)tetrahydro-2H-pyran-3,4,5-triol], the pIC50 is 8.57.
In turn, `OC[C@H]1O[C@@H](c2cc(Cc3ccc4c(c3)OCCO4)c(Cl)c3c2OCCC3)[C@H](O)[C@@H](O)[C@@H]1O` [Example E044, (2S,3R,4R,5S,6R)-2-(5-Chloro-6-((2,3-dihydrobenzo[b][1,4]dioxin-6-yl)methyl)chroman-8-yl)-6-(hydroxymethyl)tetrahydro-2H-pyran-3,4,5-triol] showed a pIC50 of 8.78.
As to `OC[C@H]1O[C@@H](c2cc(Cc3ccc4c(c3)OCCO4)c(Cl)c3c2CCO3)[C@H](O)[C@@H](O)[C@@H]1O` [Example E045, (2S,3R,4R,5S,6R)-2-(7-Chloro-6-((2,3-dihydrobenzo[b][1,4]dioxin-6-yl)methyl)-2,3-dihydrobenzofuran-4-yl)-6-(hydroxymethyl)tetrahydro-2H-pyran-3,4,5-triol], the negative logarithm of the IC50 (pIC50) is 8.86. The pIC50 values of the last two molecules are within 0.2 log units of each other.
The same measure for `CCOc1ccc(Cc2cc([C@@H]3O[C@H](CO)[C@@H](O)[C@H](O)[C@H]3O)c3sccc3c2Cl)cc1` [Example E046, (2S,3R,4R,5S,6R)-2-(4-Chloro-5-(4-ethoxybenzyl)benzo[b]thiophen-7-yl)-6-(hydroxymethyl)tetrahydro-2H-pyran-3,4,5-triol]: 6.56.
`OC[C@H]1S[C@@H](c2ccc(Cl)c(Cc3ccc4c(c3)OCCO4)c2)[C@H](O)[C@@H](O)[C@@H]1O` [Example E047, (2S,3R,4R,5S,6R)-2-(4-Chloro-3-((2,3-dihydrobenzo[b][1,4]dioxin-6-yl)methyl)phenyl)-6-(hydroxymethyl)tetrahydro-2H-thiopyran-3,4,5-triol] had a pIC50 of 8.38. This pIC50 is 1.82 log units higher than that of the molecule before.
On to `COc1cc(Cl)c(Cc2ccc3c(c2)OCCO3)cc1[C@@H]1S[C@H](CO)[C@@H](O)[C@H](O)[C@H]1O` [Example E048, (2S,3R,4R,5S,6R)-2-(4-Chloro-5-((2,3-dihydrobenzo[b][1,4]dioxin-6-yl)methyl)-2-methoxyphenyl)-6-(hydroxymethyl)tetrahydro-2H-thiopyran-3,4,5-triol], for which the pIC50 was 8.58.
Regarding `OC[C@H]1O[C@@H](c2ccc(Cl)c(Cc3ccc4c(c3)OCCO4)c2)[C@H](O)[C@@H](O)[C@@H]1O` [Example E049, (2S,3R,4R,5S,6R)-2-(4-Chloro-3-((2,3-dihydrobenzo[b][1,4]dioxin-6-yl)methyl)phenyl)-6-(hydroxymethyl)-tetrahydro-2H-pyran-3,4,5-triol], the pIC50 is 8.91.
In the case of `OC[C@H]1O[C@@H](c2cc(Cc3ccc4c(c3)OCCO4)c(Cl)cc2O)[C@H](O)[C@@H](O)[C@@H]1O` [Example E052, (2S,3R,4R,5S,6R)-2-(4-Chloro-5-((2,3-dihydrobenzo[b][1,4]dioxin-6-yl)methyl)-2-hydroxyphenyl)-6-(hydroxymethyl)-tetrahydro-2H-pyran-3,4,5-triol], the negative logarithm of the IC50 (pIC50) was 8.79.
In turn, `Cc1ccc([C@@H]2O[C@H](CO)[C@@H](O)[C@H](O)[C@H]2O)cc1Cc1ccc2c(c1)OCCO2` [Example E054, (2S,3R,4R,5S,6R)-2-(3-((2,3-Dihydrobenzo[b][1,4]dioxin-6-yl)methyl)-4-methylphenyl)-6-(hydroxymethyl)-tetrahydro-2H-pyran-3,4,5-triol] gave a pIC50 of 8.69.
Take `OC[C@H]1O[C@@H](c2ccc(Cl)c(Cc3ccc4c(c3)OCO4)c2)[C@H](O)[C@@H](O)[C@@H]1O` [Example E056, (2S,3R,4R,5S,6R)-2-(3-(Benzo[d][1,3]dioxol-5-ylmethyl)-4-chlorophenyl)-6-(hydroxymethyl)-tetrahydro-2H-pyran-3,4,5-triol]: the pIC50 was 8.59.
The same measure for `OC[C@H]1O[C@@H](c2ccc(Cl)c(Cc3ccc4c(c3)CCC4)c2)[C@H](O)[C@@H](O)[C@@H]1O` [Example E057, (2S,3R,4R,5S,6R)-2-(4-Chloro-3-((2,3-dihydro-1H-inden-5-yl)methyl)phenyl)-6-(hydroxymethyl)-tetrahydro-2H-pyran-3,4,5-triol]: 8.67.

The pIC50 is the IC50 on a negative log10 scale, so that one unit is a factor of ten. Higher therefore signals a low IC50.
